The values that follow come from patent US4649203A, “Ketoalkylphospholipids” (Takeda Chemical Industries, Ltd., priority 1983, dated 1987).

In brackets after ≈: the same amount, converted by molar mass. Like-named read-outs stand apart in the source and are kept apart here.

One series has as its system Pyricularia oryzae. Kind of series: microbe, parasite or virus in culture. The conditions noted are these: read-out: MIC, Pyricularia oryzae (rice blast). The series is classed as cell-based.
The subject of the next series is Botrytis cinerea. Kind of series: Antifungal activity, serial dilution method. The conditions noted are these: 1% glucose bouillon agar, read-out: MIC, Botrytis cinerea (gray mold). Type of series: cell-based.
For a further series, the system named is Diaporthe citri. Description: Antifungal activity, serial dilution method. Type of series: cell-based. The conditions noted are these: 1% glucose bouillon agar, read-out: MIC, Diaporthe citri (citrus melanose).
A further series has as its system Elsinoe fawcetti. Description: Antifungal activity, serial dilution method. The series is classed as cell-based. The conditions noted are these: 1% glucose bouillon agar; read-out: MIC, Elsinoe fawcetti (citrus scab).
A further series relates to Cercospora beticola. Description: Antifungal activity, serial dilution method. Type of series: cell-based. The conditions noted are these: read-out: MIC, Cercospora beticola (sugar beat leaf spot).
The next series has as its system Sclerotinia sclerotiorum. Kind of series: Antifungal activity, serial dilution method. The series is classed as cell-based. The conditions noted are these: 1% glucose bouillon agar, read-out: MIC, Sclerotinia sclerotiorum (kidney bean stem rot).
Series [1] concerns sarcoma 180 cells. Kind of series: Antitumor activity, sarcoma 180, drug given 4 days before inoculation (Test Examples 1 and 7). The series is classed as in vivo, ICR mice. The conditions noted are these: for Number of surviving animals/Number of animals tested: 47th day, conditions of Test Example 1; for life span prolonging ratio (T/C): ICR mice, 1 mg/mouse, 4 days before i.p. inoculation of 1×10^5 sarcoma 180 cells. The procedure:
Four days later, 1×10^5 sarcoma 180 cells were inoculated intraperitoneally into each mouse. […] The compounds of Examples 1, 4 and 6 were tested under the same conditions as Test Example 1. The value of the number of surviving animals represents the number of animals which survived on the 47th day.

Series [2] relates to sarcoma 180 cells. Kind of series: Antitumor activity, sarcoma 180, drug given after inoculation (Test Examples 2, 3 and 8). The series is classed as in vivo, ICR mice. The conditions noted are these: for Number of surviving animals/Number of animals tested: 47th day, conditions of Test Example 2; for life span prolonging ratio (T/C): ICR mice, 0.33 mg/mouse at hour 1, day 1 and day 2 after i.p. sarcoma 180 inoculation. From the text: ICR mice (5 animals per group) were intraperitoneally inoculated with 1×10^5 sarcoma 180 cells per mouse. […] The life span prolonging ratio as compared with the control (no drug treatment) group was 206. […] The life span prolonging ratio was 257. […] The value of the number of surviving animals represents the number of animals which survived on the 47th day.

A short description of series [3]: Toxicity testing, LD50 (Test Example 11). The conditions noted are these: mouse, in vivo, ip; ICR mice, intraperitoneal, in physiological saline. The procedure: LD50 values were determined in ICR mice by intraperitoneally administering each test compound in the form of a solution in physiological saline.
In a further series the test system is PAF. Description: Anti-PAF activity, inhibition of PAF-induced platelet aggregation (Test Example 14). Type of series: cell-based. The conditions noted are these: Oryctolagus cuniculus, 3×10^-5 M, rabbit washed PRP, read-out: percentage inhibition of maximum aggregation due to PAF. Here is the method:
A blood sample was taken directly from a male rabbit using a syringe containing 3.15% citric acid (1 to 9 volumes of blood) as anticoagulant, and centrifuged at 1000 rpm and room temperature for 10 minutes to give platelet rich plasma (PRP). The PRP was further centrifuged at 1400 rpm for 15 minutes. The platelet pellet thus obtained was suspended in Ca^++ -free Tyrode (containing 0.25% of gelatin). A 250-μl portion of the thus-prepared washed PRP was stirred at 37° C. for 2 minutes, then 25 μl of 0.2-0.5 mM Ca^++ solution was added and the mixture was further stirred for 30 seconds. Thereafter, the compound of Example 8 was added to a concentration of 3×10^-5 M. Platelet aggregation was measured with an aggregation meter (Rigaku Denki). The activity of the compound of Example 8 as determined in terms of percentage inhibition based on the maximum light transmittance (maximum aggregation) due to PAF in the control PRP was 94%.

The test system of the next series is blood pressure. The conditions noted are these: rat, in vivo, iv.
The next series has as its system Meth A sacoma cells. Kind of series: Antitumor activity, Meth A sarcoma (Test Example 4). Type of series: in vivo, Balb/C mice. The conditions noted are these: 0.5 mg/mouse once daily for 5 days at site of inoculation; tumors weighed day 15. Here is the method:
Balb/C mice (5 animals per group) were each subcutaneously inoculated with 1×10^5 Meth A sacoma cells. Separately, a solution of the compound of Example 7 in physiological saline was administered to the mice at the site of inoculation in a dose of 0.5 mg/mouse once daily for 5 consecutive days starting from day 1 after tumor cell inoculation. On day 15, the tumor tissues were excised and weighed. The inhibition ratio as compared with the control group was 83%.

For another series, the system named is P388 leukemia cells. Description: Antitumor activity, P388 leukemia (Test Example 5). Type of series: in vivo. The conditions noted are these: CDF1 mice, 1 mg/mouse i.p. once per day for 14 days. The procedure: CDF1 mice (5 animals per group) were each intraperitoneally inoculated with 1×10^5 P388 leukemia cells. Separately, a solution of the compound of Example 7 in physiological saline was intraperitoneally administered to the mice in a dose of 1 mg/mouse once per day for 14 consecutive days starting from day 1 after tumor implantation. The life span prolonging ratio as compared with the control group was 140.

In another series the test system is MM46 cells. Kind of series: Antitumor activity, MM46 (Test Example 6). Type of series: in vivo, C3H/He mice. The conditions noted are these: 5 animals per group; 0.25 mg/mouse i.p. 4 days before and 4 days after inoculation; controls all died within 21 days. The procedure:
The compound of Example 7 was intraperitoneally administered to C3H/He mice (5 animals per group) in a dose of 0.25 mg/mouse for 4 consecutive days.
On the 5th day, 1×10^4 MM46 cells were intraperitoneally inoculated into each mouse, and the compound of Example 7 was again administered intraperitoneally to the mice in a dose of 0.25 mg/mouse for 4 days starting from day 1 after inoculation.

The subject of another series is washed PRP (platelets). Description: Action on platelets: platelet aggregation caused by test drug (Test Example 9). Type of series: cell-based. The conditions noted are these: 3×10^-5 M, rabbit washed PRP, 37° C. Here is the method: A blood sample was taken from a male rabbit using a syringe containing 3.15% citric acid (1 to 9 volumes of blood) as anticoagulant, and centrifuged at 1000 rpm and room temperature for 10 minutes to give platelet rich plasma (PRP). The PRP was further centrifuged at 1400 rpm for 15 minutes. The platelet pellet thus obtained was suspended in Ca^++ -free Tyrode (containing 0.25% of gelatin). A 250 μl portion of the thus-prepared washed PRP was stirred at 37° C. for 2 minutes, then 25 μl of 0.2-0.5 mM Ca^++ solution was added and the mixture was further stirred for 30 seconds. Thereafter, the test drug was added in an amount sufficient to make a concentration of 3×10^-5M. Platelet aggregation was measured using an aggregation meter (Rigaku Denki).

In the next series the test system is Tetrahymena pyriformis W. Kind of series: Microprotozoal growth inhibiting activity, liquid dilution method (Test Example 13). The series is classed as cell-based. The conditions noted are these: 28° C., 44-48 hours, pH 7.0. The procedure:
The compounds given in Table 4 were tested for microprotozoal growth inhibiting activity (expressed in terms of MIC) in Tetrahymena pyriformis W by the liquid dilution method by cultivating said test microorganism in a test medium [20 g of Tryptose peptone (Difco), 1 g of yeast extract, 2 g of glucose, 1000 ml of distilled water, 10 ml of 1M phosphate buffer, pH 7.0] at 28° C. for 44-48 hours.

Series [4] is described as follows: Adverse effects (general statement).
The next series relates to platelets. The conditions noted are these: Hanahan et al., Biochem. Biophys. Res. Commun., 99, 183 (1981); cited from earlier work.

Procedure for blood pressure: Seven-week-old male Spraugue-Dawley rats (200-290 g) were anesthesized by intraperitoneal administration of 60 mg/kg of pentobarbital sodium and the left carotid artery (for blood pressure measurement) and left femoral vein (for intravenous drug administration) were cannulated.

Take `CCCCCCCCCCCCCCCCC(=O)COCC(COP(=O)([O-])OCC[N+](C)(C)C)OC` (centres unmarked) [drawing 49]: the MIC is 3.12 µg/mL (≈ 5.8 µM) with Pyricularia oryzae; 6.25 µg/mL (≈ 11.6 µM) with Botrytis cinerea; 6.25 µg/mL (≈ 11.6 µM) in the series with Diaporthe citri; 6.25 µg/mL (≈ 11.6 µM) in the series with Elsinoe fawcetti; 3.12 µg/mL (≈ 5.8 µM) in the series with Cercospora beticola; 25 µg/mL (≈ 46.5 µM) in the series with Sclerotinia sclerotiorum.

Regarding `CCCCCCCCCCCCCCC(=O)COCC(COP(=O)([O-])OCC[N+](C)(C)C)OC` (centres unmarked) [Example 4, 3-(2-Oxohexadecyloxy)-2-methoxypropyl 2-trimethylammonioethyl phosphate], in the series on sarcoma 180 cells [1], the “Number of surviving animals/Number of animals tested” value was 0/5 and the “life span prolonging ratio (T/C)” value is recorded as 224. Also, in the series with sarcoma 180 cells [2], the “Number of surviving animals/Number of animals tested” value is given as 0/5 and the “life span prolonging ratio (T/C)” value is on record as 230.

With `CCCCCCCCCCCCCCCCC(=O)COCC(COP(=O)([O-])OCC[n+]1ccsc1)OC` (centres unmarked) [Example 8, 3-(2-Oxooctadecyloxy)-2-methoxypropyl 2-thiazolioethyl phosphate], the “life span prolonging ratio (T/C)” value with sarcoma 180 cells [2] is listed as 257. The LD50 in series [3] is above 150 mg/kg. For the same molecule, the inhibition at 30 µM in the series on PAF stood at 94%. Further, in the series with blood pressure, the “Hypotensive action [duration]” value was below 30 s, the “Hypotensive action ΔP” value is given as -3 mmHg and the “blood pressure decrease (in words)” value was “no observable blood pressure decrease”.

Take `CCCCCCCCCCCCCCCCC(=O)COCC(COP(=O)([O-])OCC[N+](C)(C)C)OC` (centres unmarked) [Example 7, 3-(2-Oxooctadecyloxy)-2-methoxypropyl 2-trimethylammonioethyl phosphate]: in the series on sarcoma 180 cells [1], the “life span prolonging ratio (T/C)” value was 180. In the series with sarcoma 180 cells [2], the “life span prolonging ratio (T/C)” value is 206. Also, the “inhibition ratio (tumor weight) as compared with control group” value with Meth A sacoma cells amounted to 83%. Moreover, the “life span prolonging ratio as compared with the control group” value with P388 leukemia cells worked out at 140. In addition, the “animals survived on day 46” value in the series on MM46 cells is given as 4 animals. Besides, the “platelet aggregation (in words)” value in the series on washed PRP (platelets) is listed as “did not cause aggregation at all”. Besides, the “platelet aggregation (in words)” value in the series on washed PRP (platelets) (listed as drawing 39) is given as “No aggregation”. In addition, the LD50 in series [3] is above 150 mg/kg. Moreover, in the series on blood pressure, the “Hypotensive action [duration]” value is below 30 s, the “Hypotensive action ΔP” value was -5 mmHg and the “blood pressure decrease (in words)” value is “no observable blood pressure decrease”.

`CCCCCCCCCCCCCCCCC(=O)COCC(COP(=O)([O-])OCC[n+]1ccsc1)OC` (centres unmarked) [drawing 51]: the MIC came to 3.12 µg/mL (≈ 5.53 µM) in the series with Pyricularia oryzae; 100 µg/mL (≈ 177 µM) in the series with Botrytis cinerea; 12.5 µg/mL (≈ 22.2 µM) in the series on Diaporthe citri; 12.5 µg/mL (≈ 22.2 µM) in the series with Elsinoe fawcetti; 12.5 µg/mL (≈ 22.2 µM) with Cercospora beticola (1% glucose bouillon agar); 25 µg/mL (≈ 44.3 µM) in the series on Sclerotinia sclerotiorum.

Consider `CCCCCCCCCCCCCCCCC(=O)COCC(COP(=O)([O-])OCC[n+]1ccsc1)OC` (centres unmarked) [drawing 45], for which, in the series on Tetrahymena pyriformis W, the MIC lay within 1 to 2 µg/mL (≈ 1.77 to 3.55 µM).

On to `CCCCCCCCCCCCCCCCCCOCC(COP(=O)([O-])OCC[N+](C)(C)C)OC` (centres unmarked) [compound (XIII), reference compound], for which, in the series on sarcoma 180 cells [1], the “life span prolonging ratio (T/C)” value stood at 170. Also, in series [3], the LD50 lay in the range of 25 to 50 mg/kg. Also, the MIC is 1 µg/mL (≈ 1.91 µM) in the series on Tetrahymena pyriformis W, 6.25 µg/mL (≈ 11.9 µM) with Pyricularia oryzae, 25 µg/mL (≈ 47.7 µM) with Botrytis cinerea and above 100 µg/mL with Sclerotinia sclerotiorum. The “adverse effects (in words)” value in series [4] was “hypotensive activity and local irritation (necrosis) is also noted”. Moreover, the “Hypotensive action [duration]” value in the series on blood pressure is 270 s. Also, in the series on blood pressure, the “Hypotensive action ΔP” value was -43 to -75 mmHg. The “platelet aggregating activity (in words)” value with platelets is “platelet aggregating activity”.

As to `CCCCCCCCCCCCCCCC(=O)COCC(COP(=O)([O-])OCC[N+](C)(C)C)OC` (centres unmarked) [Example 1, 3-(2-Oxoheptadecyloxy)-2-methoxypropyl 2-trimethylammonioethyl phosphate], in the series with sarcoma 180 cells [1], the “Number of surviving animals/Number of animals tested” value is listed as 0/5 and the “life span prolonging ratio (T/C)” value came out at 290. Also, in the series with sarcoma 180 cells [2], the “Number of surviving animals/Number of animals tested” value is 0/5 and the “life span prolonging ratio (T/C)” value was 340.

Consider `CCCCCCCCCCCCCCCCCCC(=O)COCC(COP(=O)([O-])OCC[N+](C)(C)C)OC` (centres unmarked) [Example 6, 3-(2-Oxoeicosyloxy)-2-methoxypropyl 2-trimethylammonioethyl phosphate], for which, in the series on sarcoma 180 cells [1], the “Number of surviving animals/Number of animals tested” value is given as 1/5 and the “life span prolonging ratio (T/C)” value worked out at 236. In the series with sarcoma 180 cells [2], the “Number of surviving animals/Number of animals tested” value is given as 0/5 and the “life span prolonging ratio (T/C)” value was 338.

`CCCCCCCCCCCCCCCCC(=O)COCC(COP(=O)([O-])OCC[N+](C)(C)C)OC` (centres unmarked) [drawing 44] showed an MIC with Tetrahymena pyriformis W of 0.4 µg/mL (≈ 0.744 µM).

What is called LD50 is the dose at which mortality reaches 50%. Read a low LD50 as a more toxic substance. In general, inhibition refers to the percentage by which the read-out fell short of the control.
